Measurements taken from patent publication US11999782B2, “Therapeutic agents for the treatment of diseases associated with undesired cell proliferation” (Fundació Privada Institutció Catalana de Recerca I Estudis …, priority 2009, dated 2024).

Columns and labels:
[1] = system: GICs (glioma initiating cells) / GBM neurospheres; experiment: Self-renewal assay of GBM neurospheres (GICs derived from patients); assay type: cell-based, human; settings: added with 100 pM TGFβ1; 2 μM TβRI inhibitor, anti-LIF neutralizing antibody or 0.5 pM P6; absence of EGF and FGF
Method: FIG. 1. Effect of TGFβ on the self-renewal of GIC derived from patients. (A) Representative images of PCTCs and neurospheres of GBM generated from samples of 3 different patients with GBM (GBM1, GBM2, GBM3). (B) Musashi-1 (Msi-1), Sox2, Nestin and β-actin were determined by means of RT-PCR analysis of PCTCs and neurospheres of 3 samples of human GBM. (C) 100,000 neurosphere (nsph.) or PCTC cells obtained from samples of GBM1, GBM2 and GBM3 tumors were intracranially inoculated in three Balbc nu/nu mice in each case. Magnetic resonance imaging (MRI) studies were performed on days 30-40 in each mouse. The images represent an example of mice inoculated with neurosphere or PCTC cells obtained from GBM1. The mice were weighed twice a week. The graph represents mice inoculated with cells derived from GBM1. (D and E) Neurosphere cells of the indicated GBMs were incubated in the absence of growth factors with 100 pM TGFβ1 and/or 2 μM TβRI inhibitor for 7 days and the number of newly formed neurospheres (D) and the total number of cells (E) were determined. (F) Representative images of GBM1 neurospheres treated as indicated in D and E.
FIG. 6. LIF mediates the increase of self-renewal of GIC by TGFβ. (A, B) GBM1, GBM2 and GBM3 neurosphere cells were treated with 100 pM TGFβ1, 20 ng/ml LIF and/or anti-LIF neutralizing antibody and 0.5 pM P6 in the absence of EGF and FGF and the number of newly formed neurospheres (A) or the total number of cells (B) was determined. (C) Representative images of GBM1 neurospheres treated as indicated in A and B.
The self-renewal of the neurospheres was evaluated by seeding an identical number of cells at a very low density in wells of a 96-well plate. The cells were treated, in the absence of growth factors, with the indicated compounds and the total number of new neurospheres formed after 7 days in culture was counted (Lee et al. (2008) Cancer Cell 13, 69-80; Reynolds and Weiss, (1996) Dev Biol 175, 1-13; Seaberg and van der Kooy, (2002) J Neurosci 22, 1784-1793).
It was decided to evaluate the effect of TGFβ on the capacity for self-renewal of GICs following a well described protocol based on the capacity of GICs to generate neurospheres (Reynolds and Weiss, 1996, Dev Biol. 175:1-13; Seaberg and van der Kooy, 2002, J Neurosci 22:1784-1793). The neurospheres derived from patients were disassociated into individual cells, treated with TGFβ or left untreated for 7 days in the absence of growth factors and the newly formed neurospheres and the total number of cells were counted. Following this protocol, the effect of TGFβ on the capacity for self-renewal of the GICs derived from three different patients was evaluated. […] These effects were blocked when an TGFβ I receptor inhibitor (TβRI) was added at the same time as TGFβ.
It was decided to assess whether LIF and JAK-STAT pathway mediated the increase of self-renewal of GICs by TGFβ. For this purpose, the neutralizing antibody against LIP and P6 was used to specifically block the effect of the secreted LIP on cells treated with TGFβ. The neurospheres were disassociated into individual cells and were treated with TGFβ, recombinant LIF, anti-LIF antibody and/or P6. The newly formed neurospheres and the total number of cells were counted. […] The treatment with the neutralizing antibody of LIP decreased the induction of the self-renewal of GICs by TGFβ.

[2] = system: STAT3 phosphorylation (JAK-STAT pathway); experiment: p-STAT3 Western blotting in GBM1 neurospheres; assay type: cell-based, human
Method: FIG. 5. TGFβ induces the LIF-JAK-STAT pathway in GEM neurospheres derived from patients. (A) The levels of p-STAT3 and STAT3 were determined by means of Western blotting of neurospheres of the sample of GBM1 treated with 20 ng/ml LIF for the indicated time periods. (B) The neurospheres of the sample of GBM1 were treated with 20 ng/ml LIF and/or 0.5 pM P6 for 15 minutes and the levels of total p-STAT3 and STAT3 were determined by means of Western blotting. (C) The neurospheres of the sample of GBM1 were treated with 100 pM TGFβ1 or the 2 pM TβRI inhibitor for 4 hours in the absence of EFG and FGF and the levels of p-STAT3, STAT3, p-Smad2, Smad2 and α-tubulin were determined by means of Western blotting. (D) the neurospheres of the sample of GBM1 were treated with 100 pM TGFβ1, 0.5 μM P6 or the blocking antibody against LIF for 4 hours in the absence of EGF and FGF and the levels of total p-STAT3 and STAT3 were determined by means of Western blotting.
Genomic DNA of U373MG was used to amplify the −634/+32 region of the human LIF promoter which was cloned into the pGL2-basic luciferase vector. The deletion constructs (−267/+32), and (−73/+32) were generated by means of digestion of the construct (−634/+32). Two point mutations were introduced in positions −183 bp and −184 bp in the construct (−267/+32) to interrupt the Smad binding element (SBE) and generate the construct (−267/+32) mutSBE. TGFβ1, TGFβ2, TGFβ3 (R&D Systems), TβRI inhibitor (SB431542, Tocris), LIF (Chemicon), the neutralizing antibodies against LIF (R&D), JAK inhibitor (tetracyclic pyridone 6 (P6) Calbiochem), the assembly of SMART siRNAs targeted to Smad2, Smad3 and Smad4 (Dharmacon), and the control siRNA siGlo (Dharmacon) were used at the indicated concentrations. The antibodies specific against p-Smad2, Smad2, p-STAT3 (p-Tyr705) and total STAT3 (Cell Signalling) and against Smad2, Smad3 and Smad4 (Hata et al., (2000) Cell 100, 229-240) were used for Western blotting.
In order to distinguish whether the LIF signaling pathway is functional in GEM neurospheres, the neurospheres were treated with recombinant LIF and the levels of phosphorylation of the downstream substrate of the LIF receptor complex, STAT3, were determined. […] Furthermore, the induction of p-STAT3 was prevented by the presence of a pharmacological JAK-specific, tetracyclic pyridone 6 (P6) (Pedranzini et al., 2006, Cancer Res, 66: 9714-9721; Thompson et al., 2002, Bioorg Med Chem Lett, 12:1219-1223) (FIG. 5B). […] It was decided to assess whether LIP was mediating the induction of p-STAT3 by TGFβ. For this purpose, a neutralizing antibody against LIF was used to specifically block the effect of secreted LIP on cells treated with TGFβ. The presence of the neutralizing antibody of LIP decreased the induction of p-STAT3 by TGFβ. Furthermore, the levels of p-STAT3 in cells treated with TGFβ were repressed by means of the treatment with P6 (FIG. 5D).

[3] = system: LIF expression in normal human neuroprogenitors; experiment: LIF mRNA in neurospheres of normal human neuroprogenitors; assay type: cell-based; settings: 100 pM, 3 hours, compared with GBM neurospheres
Method: FIG. 8. Effect of TGFβ on the capacity of self-renewal of normal human neuroprogenitors. (A) Immunocytochemistry of the indicated markers was performed in human neuroprogenitor neurospheres. (B) Neurospheres of the sample of GBM1 and of human neuroprogenitors were incubated with the indicated members of the 100 pM TGFβ family for 3 hours and the mRNA levels of LIF were determined. (C, D) Neurosphere cells of normal human neuroprogenitors were incubated in the same conditions that have been described above in FIG. 1D in the presence of 100 pM TGFβ1 or 20 ng/ml LIF for 7 days and the number of newly formed neurospheres (C) and the number total of cells (D) were determined.
The U373MG and A172 cells were a generous gift from J. Rich and D. Bigner and were cultured in DMEM with 10% fetal bovine serum (FBS). The primary culture of tumor cells (PCTC) and the GBM neurospheres were generated as described (Bruna et al., (2007) Cancer Cell 11, 147-160; Gunther et al., (2008) Oncogene. May 1; 27(20):2897-909). Briefly, the samples of tumors were processed in the 30 minutes after the surgical resection. The ground pieces of the samples of human gliomas were digested with 200 U/ml collagenase I (Sigma) and 500 U/ml of DNase I (Sigma) in PBS for 2 hours at 37° C. and with constant vigorous stirring. The suspension of individual cells was filtered through a 70 μm cell filter (BD Falcon) and washed with PBS. […]
qRT-PCR was performed using Taqman probes from Applied Biosystems, according to the manufacturer's recommendations. The reactions were carried out in a ABI 7000 sequence detector (Perkin Elmer) and the results were expressed as the fold change calculated by means of the DDCt method relative to the control sample or the first quantified sample. […]
It was decided to assess whether this effect was specific to tumor cells or was also present in normal neuroprogenitor cells. […] First, it was determined if TGFβ induced LIF in normal human neuroprogenitors. […]

[4] = system: LIF expression in GBM neurospheres; experiment: LIF mRNA by qRT-PCR in GBM neurospheres; assay type: cell-based, human; settings: 100 pM, 3 hours, medium without serum
Method: FIG. 3. TGFβ induces the expression of LIF in PCTC and GBM neurospheres. (A) PCTC cells of the 11 samples of the indicated GEM (GBM1-11) were treated with 100 pM TGFβ1 for 3 hours in medium without serum or left untreated, and the expression levels of LIF were determined by means of qRT-PCR. The g-actin was determined as an internal normalization control. (B) GBM neurosphere cells were treated as in A and the expression levels of LIF were determined by means of qRT-PCR as in A. (C) GBM neurospheres were incubated with 100 pM TGFβ1 and/or 2 μM TβRI inhibitor for 3 hours in medium without serum and the mRNA levels of LIF were determined by means of qRT-PCR as in A. (D) GBM1 neurospheres were incubated with 100 pM TGFβ1, TGFβ2 and TGFβ3 for 3 hours in medium without serum and the mRNA levels of LIF were determined by means of qRT-PCR as in A. (E) The levels of LIF protein secreted were determined by means of ELISA in GBM1 neurospheres after 48 hours of treatment with 100 pM TGFβ1.
The U373MG and A172 cells were a generous gift from J. Rich and D. Bigner and were cultured in DMEM with 10% fetal bovine serum (FBS). The primary culture of tumor cells (PCTC) and the GBM neurospheres were generated as described (Bruna et al., (2007) Cancer Cell 11, 147-160; Gunther et al., (2008) Oncogene. May 1; 27(20):2897-909). Briefly, the samples of tumors were processed in the 30 minutes after the surgical resection. The ground pieces of the samples of human gliomas were digested with 200 U/ml collagenase I (Sigma) and 500 U/ml of DNase I (Sigma) in PBS for 2 hours at 37° C. and with constant vigorous stirring. The suspension of individual cells was filtered through a 70 μm cell filter (BD Falcon) and washed with PBS. Finally, the cells were resuspended and subsequently cultured in DMEM with 10% FBS, for the culture of PCTCs, or in neurosphere medium in the case of the GBM neurospheres. The neurospheres of normal human neuroprogenitors were generated from human embryonic cerebral cortex tissue (12-16 weeks after the conception) collected after voluntary abortions. The samples were processed and cultured as described (Poltavtseva et al. (2002) Brain Res Dev Brain Res 134, 149-154). The neurosphere medium consists of neurobasal medium (Gibco) supplemented with B27 (Gibco), L-glutamine (Gibco), penicillin/streptomycin, and growth factors (20 ng/mL EGF and 20 ng/mL FGF-2 (Peprotech)).
qRT-PCR was performed using Taqman probes from Applied Biosystems, according to the manufacturer's recommendations. The reactions were carried out in a ABI 7000 sequence detector (Perkin Elmer) and the results were expressed as the fold change calculated by means of the DDCt method relative to the control sample or the first quantified sample. The ribosomal unit of 18S or β-actin were used as internal normalization controls.
It was decided to investigate the molecular mechanisms responsible for the effect of TGFβ on GICs. Gene responses to TGFβ in GBM cells which could be involved in the regulation of the self-renewal of GICs were investigated. In a previous work (Bruna et al., 2007), transcriptome analyses were conducted in the U373MG glioma cell line treated with TGFβ and/or a TβRI inhibitor. LIF was among the 63 gene responses to TGFβ in U373MG which were dependent on the activity of TβRI. […] A panel of PCTCs derived from 11 different human GBMs was treated with TGFβ for 3 hours and the levels of LIF mRNA were determined.

Row | Molecule | effect on the induction of self-renewal of GICs by TGFβ (number of neurospheres, total number of cells) [1] | effect on the induction of p-STAT3 by TGFβ ([2]; 100 pM TGFβ1, 4 hours, absence of EGF and FGF, 2 pM TβRI inhibitor, 0.5 μM P6 or blocking antibody against LIF) | effect on the induction of p-STAT3 by LIF ([2]; 20 ng/ml LIF and 0.5 pM P6, 15 minutes) | induction of LIF mRNA in normal human neuroprogenitor neurospheres [3] | LIF transcript in neurospheres derived from patients [4]
1 | CC(C)(C)c1nc2c3ccc(F)cc3c3c(=O)[nH]ccc3c2[nH]1 [P6, tetracyclic pyridone 6] | repressed | repressed | prevented |  | 
2 | TGFβ2: TGFβ2 (R&D Systems), member of the TGFβ family (protein, UniProt P61812 303-414, looked up) Transforming growth factor …: ALDAAYCFRNVQDNCCLRPLYIDFKRDLGWKWIHEPKGYNANFCAGACPYLWSSDTQHSRVLSLYNTINPEASASPCCVSQDLEPLTILYYIGKTPKIEQLSNMIVKSCKCS |  |  |  | did not induce LIF | capable of inducing LIF
